± gives the expanded uncertainty stated by the source.
Experiment: xn = mol fraction of the nth substance listed
Details: for surface tension liquid-gas: Drop volume; for viscosity / speed of sound / mass density: 99 kPa, Liquid; for viscosity: Capillary tube (Ostwald / Ubbelohde) method; for speed of sound: Frequency=3 MHz, Sing-around technique in a fixed-path interferometer; for mass density: Vibrating tube method

CCCC[n+]1ccccc1.F[B-](F)(F)F [1-butylpyridinium tetrafluoroborate] + O
Details | mass density [kg/m3] | speed of sound [m/s] | surface tension liquid-gas [mN/m] | viscosity [mPa·s]
313.15 K, x1 = 0.0115 | – | – | 55.5 ± 0.6 | –
313.15 K, x1 = 0.0165 | 1021.2 ± 1 | 1560 ± 1.2 | – | –
313.15 K, x1 = 0.0185 | – | – | 53 ± 0.6 | –
313.15 K, x1 = 0.0271 | – | – | 51.6 ± 0.6 | –
313.15 K, x1 = 0.0372 | – | – | 50.3 ± 0.5 | –
313.15 K, x1 = 0.0379 | 1049.2 ± 1 | 1576.8 ± 1.2 | – | –
313.15 K, x1 = 0.0456 | – | – | 49.9 ± 0.5 | –
313.15 K, x1 = 0.047 | – | – | – | 0.845 ± 0.068
313.15 K, x1 = 0.0863 | 1089.2 ± 1 | 1590.3 ± 1.2 | – | –
313.15 K, x1 = 0.0942 | – | – | 48.5 ± 0.5 | –
313.15 K, x1 = 0.095 | – | – | – | 1.16 ± 0.093
313.15 K, x1 = 0.101 | 1097.8 ± 1 | 1591.9 ± 1.2 | – | –
313.15 K, x1 = 0.134 | 1113.3 ± 1 | 1593.4 ± 1.2 | – | –
313.15 K, x1 = 0.1907 | – | – | 47.9 ± 0.5 | –
313.15 K, x1 = 0.2001 | – | – | – | 1.741 ± 0.14
313.15 K, x1 = 0.243 | 1144.4 ± 1 | 1590.6 ± 1.3 | – | –
313.15 K, x1 = 0.2846 | – | – | 47.7 ± 0.5 | –
313.15 K, x1 = 0.289 | 1152.9 ± 1 | 1587.9 ± 1.3 | – | –
313.15 K, x1 = 0.2912 | – | – | – | 2.929 ± 0.23
313.15 K, x1 = 0.34 | – | – | 47.6 ± 0.5 | –
313.15 K, x1 = 0.3456 | 1161.3 ± 1 | 1585 ± 1.3 | – | –
313.15 K, x1 = 0.3866 | – | – | 47.6 ± 0.5 | –
313.15 K, x1 = 0.4015 | – | – | – | 5.101 ± 0.41
313.15 K, x1 = 0.4217 | 1170.1 ± 1 | 1580.8 ± 1.3 | – | –
313.15 K, x1 = 0.4807 | – | – | – | 8.106 ± 0.65
313.15 K, x1 = 0.486 | – | – | 47 ± 0.5 | –
313.15 K, x1 = 0.5485 | 1180.9 ± 1 | 1575.2 ± 1.4 | – | –
313.15 K, x1 = 0.5777 | – | – | 46.6 ± 0.5 | –
313.15 K, x1 = 0.5815 | – | – | – | 11.33 ± 0.91
313.15 K, x1 = 0.6029 | 1184.6 ± 1 | 1573.3 ± 1.4 | – | –
313.15 K, x1 = 0.6641 | – | – | – | 15.02 ± 1.2
313.15 K, x1 = 0.6943 | – | – | 46.2 ± 0.5 | –
313.15 K, x1 = 0.7232 | 1191.6 ± 1 | 1569.9 ± 1.4 | – | –
313.15 K, x1 = 0.7779 | – | – | 45.9 ± 0.5 | –
313.15 K, x1 = 0.7855 | – | – | – | 26.33 ± 2.1
313.15 K, x1 = 0.8005 | 1195.3 ± 1 | 1568.4 ± 1.5 | – | –
313.15 K, x1 = 0.835 | – | – | 45.7 ± 0.5 | –
313.15 K, x1 = 0.8575 | 1197.8 ± 1 | 1567.3 ± 1.5 | – | –
313.15 K, x1 = 0.8875 | – | – | – | 44.04 ± 3.5
313.15 K, x1 = 0.925 | – | – | 45.7 ± 0.5 | –
313.15 K, x1 = 0.9305 | – | – | – | 53.39 ± 4.3
313.15 K, x1 = 0.9315 | 1200.9 ± 1.1 | 1566.3 ± 1.5 | – | –
313.15 K, x1 = 0.9705 | – | – | – | 63.74 ± 5.1
313.15 K, x1 = 1 | 1203.7 ± 1.1 | 1565.6 ± 1.6 | 45.7 ± 0.5 | 71.1 ± 5.7
323.15 K, x1 = 0.0115 | – | – | 54.5 ± 0.6 | –
323.15 K, x1 = 0.0165 | 1016.5 ± 1 | 1561.9 ± 1.2 | – | –
323.15 K, x1 = 0.0185 | – | – | 52 ± 0.6 | –
323.15 K, x1 = 0.0271 | – | – | 50.5 ± 0.5 | –
323.15 K, x1 = 0.0372 | – | – | 49.5 ± 0.5 | –
323.15 K, x1 = 0.0379 | 1043.9 ± 1 | 1571.9 ± 1.2 | – | –
323.15 K, x1 = 0.0456 | – | – | 48.7 ± 0.5 | –
323.15 K, x1 = 0.047 | – | – | – | 0.708 ± 0.057
323.15 K, x1 = 0.0863 | 1083 ± 1 | 1577.9 ± 1.2 | – | –
323.15 K, x1 = 0.0942 | – | – | 47.7 ± 0.5 | –
323.15 K, x1 = 0.095 | – | – | – | 0.867 ± 0.07
323.15 K, x1 = 0.101 | 1091.5 ± 1 | 1577.7 ± 1.2 | – | –
323.15 K, x1 = 0.134 | 1106.6 ± 1 | 1576.8 ± 1.2 | – | –
323.15 K, x1 = 0.1907 | – | – | 47.1 ± 0.5 | –
323.15 K, x1 = 0.2001 | – | – | – | 1.418 ± 0.11
323.15 K, x1 = 0.243 | 1137.2 ± 1 | 1569.9 ± 1.3 | – | –
323.15 K, x1 = 0.2846 | – | – | 46.9 ± 0.5 | –
323.15 K, x1 = 0.289 | 1145.6 ± 1 | 1566.7 ± 1.3 | – | –
323.15 K, x1 = 0.2912 | – | – | – | 2.295 ± 0.18
323.15 K, x1 = 0.34 | – | – | 46.6 ± 0.5 | –
323.15 K, x1 = 0.3456 | 1153.8 ± 1 | 1562.9 ± 1.3 | – | –
323.15 K, x1 = 0.3866 | – | – | 46.4 ± 0.5 | –
323.15 K, x1 = 0.4015 | – | – | – | 3.991 ± 0.32
323.15 K, x1 = 0.4217 | 1162.6 ± 1 | 1558.9 ± 1.3 | – | –
323.15 K, x1 = 0.4807 | – | – | – | 5.631 ± 0.45
323.15 K, x1 = 0.486 | – | – | 46.1 ± 0.5 | –
323.15 K, x1 = 0.5485 | 1173.4 ± 1 | 1553.2 ± 1.4 | – | –
323.15 K, x1 = 0.5777 | – | – | 45.8 ± 0.5 | –
323.15 K, x1 = 0.5815 | – | – | – | 7.929 ± 0.64
323.15 K, x1 = 0.6029 | 1177.2 ± 1 | 1551.3 ± 1.4 | – | –
323.15 K, x1 = 0.6641 | – | – | – | 10.77 ± 0.86
323.15 K, x1 = 0.6943 | – | – | 45.6 ± 0.5 | –
323.15 K, x1 = 0.7232 | 1184.2 ± 1 | 1548 ± 1.4 | – | –
323.15 K, x1 = 0.7779 | – | – | 45.3 ± 0.5 | –
323.15 K, x1 = 0.7855 | – | – | – | 18.47 ± 1.5
323.15 K, x1 = 0.8005 | 1188 ± 1 | 1546.4 ± 1.5 | – | –
323.15 K, x1 = 0.835 | – | – | 45.1 ± 0.5 | –
323.15 K, x1 = 0.8575 | 1190.6 ± 1 | 1545.2 ± 1.5 | – | –
323.15 K, x1 = 0.8875 | – | – | – | 27.32 ± 2.2
323.15 K, x1 = 0.925 | – | – | 45.1 ± 0.5 | –
323.15 K, x1 = 0.9305 | – | – | – | 34.39 ± 2.8
323.15 K, x1 = 0.9315 | 1193.8 ± 1.1 | 1544.1 ± 1.5 | – | –
323.15 K, x1 = 0.9705 | – | – | – | 40.41 ± 3.2
323.15 K, x1 = 1 | 1196.7 ± 1.1 | 1543.5 ± 1.6 | 45.1 ± 0.5 | 45.56 ± 3.7
